Assay [1] concerns the target T1, Androgen receptor (Rattus norvegicus) (UniProt P15207).
T1 sequence (whole entry): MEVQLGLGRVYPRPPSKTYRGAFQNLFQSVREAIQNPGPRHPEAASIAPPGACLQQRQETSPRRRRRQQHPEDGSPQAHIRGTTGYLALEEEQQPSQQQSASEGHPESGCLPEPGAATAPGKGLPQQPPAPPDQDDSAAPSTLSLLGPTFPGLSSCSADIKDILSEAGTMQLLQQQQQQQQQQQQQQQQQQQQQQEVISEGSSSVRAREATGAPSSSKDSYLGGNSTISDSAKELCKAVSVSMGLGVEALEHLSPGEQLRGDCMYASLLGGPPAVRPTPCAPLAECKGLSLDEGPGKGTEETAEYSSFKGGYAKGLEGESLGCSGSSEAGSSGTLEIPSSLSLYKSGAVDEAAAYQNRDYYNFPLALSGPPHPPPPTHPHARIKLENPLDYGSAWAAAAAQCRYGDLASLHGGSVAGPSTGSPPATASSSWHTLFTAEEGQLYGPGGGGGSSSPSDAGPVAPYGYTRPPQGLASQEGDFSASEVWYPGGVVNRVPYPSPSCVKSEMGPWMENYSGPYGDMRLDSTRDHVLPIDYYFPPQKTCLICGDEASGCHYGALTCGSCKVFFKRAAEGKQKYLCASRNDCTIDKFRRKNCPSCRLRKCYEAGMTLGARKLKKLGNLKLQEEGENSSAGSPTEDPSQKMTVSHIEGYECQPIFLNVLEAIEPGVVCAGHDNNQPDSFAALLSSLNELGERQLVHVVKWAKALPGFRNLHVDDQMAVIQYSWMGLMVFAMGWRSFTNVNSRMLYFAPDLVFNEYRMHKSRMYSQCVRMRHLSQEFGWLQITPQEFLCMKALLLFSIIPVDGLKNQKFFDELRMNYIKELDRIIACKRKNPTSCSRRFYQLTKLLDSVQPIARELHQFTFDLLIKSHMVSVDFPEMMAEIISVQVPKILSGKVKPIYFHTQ
Briefly: Relative binding affinity against androgen (AR) receptor of rat after 24 hr incubation as percent binding compared to R1881.

For assay [2], the target named is T2, Glucocorticoid receptor (Rattus norvegicus) (UniProt P06536).
T2 sequence (whole entry): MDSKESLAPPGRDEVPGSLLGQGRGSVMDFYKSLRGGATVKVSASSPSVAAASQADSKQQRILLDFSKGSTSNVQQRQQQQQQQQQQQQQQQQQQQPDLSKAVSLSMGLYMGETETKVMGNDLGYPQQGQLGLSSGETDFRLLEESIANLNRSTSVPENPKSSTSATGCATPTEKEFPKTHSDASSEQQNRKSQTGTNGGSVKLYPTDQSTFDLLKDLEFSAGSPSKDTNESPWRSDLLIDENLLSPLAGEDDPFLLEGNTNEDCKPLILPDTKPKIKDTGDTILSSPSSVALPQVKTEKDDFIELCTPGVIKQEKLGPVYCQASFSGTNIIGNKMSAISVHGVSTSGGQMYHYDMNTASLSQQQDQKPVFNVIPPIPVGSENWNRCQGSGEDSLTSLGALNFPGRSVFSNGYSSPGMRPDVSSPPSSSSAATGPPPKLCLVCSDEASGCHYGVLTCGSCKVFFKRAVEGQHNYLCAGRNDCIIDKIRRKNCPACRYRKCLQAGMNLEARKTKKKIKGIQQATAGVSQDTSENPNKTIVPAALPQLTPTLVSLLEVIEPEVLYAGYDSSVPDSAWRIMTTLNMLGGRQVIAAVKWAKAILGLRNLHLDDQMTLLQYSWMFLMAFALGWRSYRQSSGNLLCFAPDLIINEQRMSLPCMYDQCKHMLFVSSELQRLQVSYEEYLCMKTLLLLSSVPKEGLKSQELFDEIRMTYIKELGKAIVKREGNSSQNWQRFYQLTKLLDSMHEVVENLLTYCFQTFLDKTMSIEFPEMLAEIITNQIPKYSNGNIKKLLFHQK
Briefly: Relative binding affinity against Glucocorticoid receptor of rat after 2 hr incubation as percent binding compared to Dexamethasone.

Assay [3] concerns the target T3, Progesterone receptor (Homo sapiens, UniProt P06401).
T3 sequence (P06401 whole entry): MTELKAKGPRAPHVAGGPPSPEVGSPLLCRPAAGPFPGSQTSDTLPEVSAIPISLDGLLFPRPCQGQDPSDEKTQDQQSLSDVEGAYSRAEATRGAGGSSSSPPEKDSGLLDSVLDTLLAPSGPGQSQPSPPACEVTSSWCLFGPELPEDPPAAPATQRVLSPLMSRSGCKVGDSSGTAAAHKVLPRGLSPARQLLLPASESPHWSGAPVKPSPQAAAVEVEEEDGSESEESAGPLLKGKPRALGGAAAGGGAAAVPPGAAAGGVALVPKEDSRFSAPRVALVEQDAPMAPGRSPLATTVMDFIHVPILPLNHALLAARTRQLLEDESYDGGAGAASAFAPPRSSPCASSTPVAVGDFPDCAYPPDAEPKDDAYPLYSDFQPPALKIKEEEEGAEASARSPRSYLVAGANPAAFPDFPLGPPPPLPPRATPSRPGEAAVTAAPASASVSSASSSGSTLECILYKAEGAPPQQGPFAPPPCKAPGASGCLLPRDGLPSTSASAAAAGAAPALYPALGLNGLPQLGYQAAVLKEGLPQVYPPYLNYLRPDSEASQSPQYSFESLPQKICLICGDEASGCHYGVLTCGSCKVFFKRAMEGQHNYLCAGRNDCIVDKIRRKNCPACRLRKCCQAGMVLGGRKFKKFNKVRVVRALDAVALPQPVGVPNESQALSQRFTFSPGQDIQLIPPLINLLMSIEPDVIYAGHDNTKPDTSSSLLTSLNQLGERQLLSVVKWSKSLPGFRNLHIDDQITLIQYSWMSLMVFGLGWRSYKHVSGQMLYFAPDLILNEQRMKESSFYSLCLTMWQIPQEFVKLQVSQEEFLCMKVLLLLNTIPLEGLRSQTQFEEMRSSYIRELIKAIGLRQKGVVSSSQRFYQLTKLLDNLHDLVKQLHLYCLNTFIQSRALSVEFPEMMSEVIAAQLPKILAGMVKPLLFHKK
Briefly: In vitro antagonist potency in transactivation assay in neuroblastoma cells expressing human PR-A progesterone receptor. Type of assay: functional, cell-based.

A further assay concerns the target T4, Androgen receptor (Homo sapiens, UniProt P10275).
T4 sequence (P10275 whole entry): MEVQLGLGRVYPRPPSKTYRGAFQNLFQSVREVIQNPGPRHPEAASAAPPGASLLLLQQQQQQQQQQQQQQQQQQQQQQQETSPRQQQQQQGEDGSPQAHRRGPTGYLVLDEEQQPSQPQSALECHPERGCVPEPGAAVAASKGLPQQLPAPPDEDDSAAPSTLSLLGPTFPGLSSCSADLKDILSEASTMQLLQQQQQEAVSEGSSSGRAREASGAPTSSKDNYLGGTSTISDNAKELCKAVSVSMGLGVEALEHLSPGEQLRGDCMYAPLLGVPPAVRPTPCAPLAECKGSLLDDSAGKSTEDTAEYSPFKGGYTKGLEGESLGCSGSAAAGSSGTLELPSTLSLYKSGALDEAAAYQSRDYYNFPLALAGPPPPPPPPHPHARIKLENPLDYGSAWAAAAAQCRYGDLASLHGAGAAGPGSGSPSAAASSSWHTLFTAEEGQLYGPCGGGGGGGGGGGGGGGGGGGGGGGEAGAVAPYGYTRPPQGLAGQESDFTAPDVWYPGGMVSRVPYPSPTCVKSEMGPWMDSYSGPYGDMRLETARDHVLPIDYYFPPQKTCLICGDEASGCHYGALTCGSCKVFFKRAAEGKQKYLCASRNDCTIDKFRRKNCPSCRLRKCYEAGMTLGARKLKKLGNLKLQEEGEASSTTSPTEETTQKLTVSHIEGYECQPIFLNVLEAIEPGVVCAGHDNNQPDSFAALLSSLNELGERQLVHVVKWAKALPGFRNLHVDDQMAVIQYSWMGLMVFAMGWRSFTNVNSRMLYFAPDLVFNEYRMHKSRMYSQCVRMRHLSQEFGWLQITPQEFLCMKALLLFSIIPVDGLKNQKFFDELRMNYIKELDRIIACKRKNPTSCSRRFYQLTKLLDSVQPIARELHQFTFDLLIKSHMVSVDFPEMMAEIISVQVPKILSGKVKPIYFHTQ
Briefly: In vitro antagonist potency in transactivation assay in CV-1 cells expressing androgen receptor. It counts as functional, cell-based.

The target of assay [4] is T3, Progesterone receptor. Briefly: In vitro antagonist potency in transactivation assay in neuroblastoma cells expressing human PR-B progesterone receptor. It counts as functional, cell-based.
The next assay deals with T5, Glucocorticoid receptor (Mus musculus, UniProt P06537).
T5 sequence (P06537 whole entry): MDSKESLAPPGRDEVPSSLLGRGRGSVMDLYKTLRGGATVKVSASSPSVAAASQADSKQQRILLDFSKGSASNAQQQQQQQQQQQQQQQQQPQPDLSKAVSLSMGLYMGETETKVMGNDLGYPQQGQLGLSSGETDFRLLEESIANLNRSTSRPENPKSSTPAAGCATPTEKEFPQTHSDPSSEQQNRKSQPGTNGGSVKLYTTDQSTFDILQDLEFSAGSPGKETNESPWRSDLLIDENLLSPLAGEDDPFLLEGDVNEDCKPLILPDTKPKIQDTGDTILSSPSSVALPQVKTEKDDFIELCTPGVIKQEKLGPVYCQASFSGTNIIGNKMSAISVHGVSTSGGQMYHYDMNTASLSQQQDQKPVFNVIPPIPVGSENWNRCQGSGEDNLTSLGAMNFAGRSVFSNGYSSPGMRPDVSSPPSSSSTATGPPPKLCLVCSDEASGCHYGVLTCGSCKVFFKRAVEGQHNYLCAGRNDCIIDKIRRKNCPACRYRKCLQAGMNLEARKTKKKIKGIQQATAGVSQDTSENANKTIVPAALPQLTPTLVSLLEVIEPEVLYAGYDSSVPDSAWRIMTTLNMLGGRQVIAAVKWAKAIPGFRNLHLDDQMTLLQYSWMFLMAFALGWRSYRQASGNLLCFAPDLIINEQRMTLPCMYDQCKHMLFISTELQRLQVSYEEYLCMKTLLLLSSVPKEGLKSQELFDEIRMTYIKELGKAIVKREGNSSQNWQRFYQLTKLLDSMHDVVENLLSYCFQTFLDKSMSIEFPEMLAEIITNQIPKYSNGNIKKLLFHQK
Briefly: In vitro antagonist potency in transactivation assay in NIH3T3 cells expressing glucocorticoid receptor. Type of assay: functional, cell-based.

The species entered for the next assay is Oryctolagus cuniculus. Briefly: Relative binding affinity against rabbit progesterone (PR) receptor after 24 hr incubation as perent binding compared to progesterone.
The target in assay [5] is T6, Progesterone receptor (Rattus norvegicus) (UniProt Q63449).
T6 sequence (whole entry): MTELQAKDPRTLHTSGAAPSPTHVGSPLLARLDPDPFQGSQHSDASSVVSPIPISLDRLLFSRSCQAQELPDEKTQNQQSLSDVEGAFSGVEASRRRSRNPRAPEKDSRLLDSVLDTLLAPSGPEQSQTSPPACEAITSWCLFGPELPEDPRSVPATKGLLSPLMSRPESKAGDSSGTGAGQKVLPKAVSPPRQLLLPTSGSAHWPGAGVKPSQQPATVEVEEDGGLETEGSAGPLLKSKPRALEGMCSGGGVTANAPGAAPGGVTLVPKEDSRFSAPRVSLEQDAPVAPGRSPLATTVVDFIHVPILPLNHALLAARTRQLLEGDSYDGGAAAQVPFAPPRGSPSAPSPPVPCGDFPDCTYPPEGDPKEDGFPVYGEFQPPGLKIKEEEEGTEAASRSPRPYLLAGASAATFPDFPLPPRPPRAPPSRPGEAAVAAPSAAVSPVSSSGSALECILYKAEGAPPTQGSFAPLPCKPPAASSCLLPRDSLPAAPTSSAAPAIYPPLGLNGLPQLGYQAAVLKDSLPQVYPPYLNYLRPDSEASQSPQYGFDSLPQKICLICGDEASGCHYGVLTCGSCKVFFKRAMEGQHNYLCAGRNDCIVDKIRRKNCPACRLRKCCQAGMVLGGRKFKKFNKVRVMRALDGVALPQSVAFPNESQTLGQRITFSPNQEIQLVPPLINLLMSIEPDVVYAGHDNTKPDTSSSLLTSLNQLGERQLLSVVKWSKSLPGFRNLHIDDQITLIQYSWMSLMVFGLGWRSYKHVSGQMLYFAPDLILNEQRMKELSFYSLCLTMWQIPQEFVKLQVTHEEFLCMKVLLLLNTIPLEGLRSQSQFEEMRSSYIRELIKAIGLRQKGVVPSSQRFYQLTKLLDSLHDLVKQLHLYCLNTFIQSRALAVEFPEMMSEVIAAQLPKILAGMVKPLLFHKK
Briefly: Full abortifacient effect at 0.03 mg/animal/day in pregnant rats. Type of assay: functional.

Assay [6] has as its target T6, Progesterone receptor (Rattus norvegicus). Briefly: Full abortifacient effect at 0.1 mg/animal/day in pregnant rats. It counts as functional.
For assay [7] the target is unchanged. Briefly: Full abortifacient effect at 0.3 mg/animal/day in pregnant rats. It counts as functional.
Assay [8] has the same target. Briefly: Incomplete abortifacient effect at 0.03 mg/animal/day in pregnant rats. Type of assay: functional.
Assay [9] shares this target. Briefly: Incomplete abortifacient effect at 0.1 mg/animal/day in pregnant rats. It counts as functional.
For assay [10] the target is unchanged. Briefly: Incomplete abortifacient effect at 0.3 mg/animal/day in pregnant rats. Type of assay: functional.
The target of assay [11] is T1, Androgen receptor (Rattus norvegicus).
Description: Antiandrogenic activity in orchidectomized young male rats after oral administration
Assay [12] addresses T2, Glucocorticoid receptor (Rattus norvegicus).
Description: Antiglucocorticoid activity in adrenalectomized young male rats after oral administration
The target of assay [13] is T7, Progesterone receptor (Homo sapiens) (UniProt P06401).
T7 sequence (whole entry): T3 sequence (P06401 whole entry)
Description: In vitro agonist potency in transactivation assay of neuroblastoma cells expressing human PR-B progesterone receptor; NE=no effect

The target of assay [14] is T7, Progesterone receptor (Homo sapiens). The source holds these as a separate data set.
The target of assay [15] is T8, Glucocorticoid receptor (Mus musculus) (UniProt P06537).
T8 sequence (whole entry): T5 sequence (P06537 whole entry)
To be noted: NIH3T3.
Description: In vitro agonist potency in transactivation assay in NIH3T3 cells expressing glucocorticoid receptor; NE=no effect

Each structure is given as a SMILES string. The source made the active and inactive calls. The rule behind the calls is not given here.

With `CC(=O)c1ccc([C@H]2C[C@@]3(C)[C@@H](CC[C@@]3(O)C(F)(F)C(F)(F)F)[C@@H]3CCC4=CC(=O)CCC4=C32)cc1` [LONAPRISAN], the RBA was determined as 3.1% in assay [1], 22.2% in [2] and 140% in the assay filed under Oryctolagus cuniculus. Further, the IC50 amounted to 0.0036 nM against Progesterone receptor [3], 54 nM against Androgen receptor, 0.0025 nM on Progesterone receptor [4] and 16 nM at Glucocorticoid receptor. The Abortion in assay [5] was 0%; in assay [6] it was 83%; in assay [7], 100%; in assay [8], 0%; in assay [9], 17%; in assay [10], 0%. Further, the ED50 mg/animal/day in assay [11] was 1.3; in assay [12], 2.
For `CC#C[C@]1(O)CC[C@H]2[C@@H]3CCC4=CC(=O)CCC4=C3[C@@H](c3ccc(N(C)C)cc3)C[C@@]21C` [MIFEPRISTONE], on Glucocorticoid receptor, 2.2 nM corresponded to half-maximal inhibition (IC50). Also, the NE result in assay [13], in assay [14] and in assay [15] was “inactive” throughout.
